For experiment [1], the system named is MDA-MB-468. In words: Antiproliferative activity against human MDA-MB-468 cells by SRB assay. Type of experiment: functional, cell-based.
Experiment [2] has as its system HeLa. In words: Antiproliferative activity against human HeLa cells by SRB assay. Type of experiment: functional, cell-based.
Experiment [3] has as its system SK-OV-3. In words: Antiproliferative activity against human SKOV3 cells by SRB assay. Type of experiment: functional, cell-based.
Experiment [4] deals with HCT-116. Nature of the experiment: Antiproliferative activity against human HCT116 cells by SRB assay. Type of experiment: functional, cell-based.
In experiment [5] the test system is A549. In words: Antiproliferative activity against human A549 cells by SRB assay. Format: functional, cell-based.
The test system of experiment [6] is MRC5. Nature of the experiment: Antiproliferative activity against human MRC5 cells by SRB assay. Type of experiment: cell-based.
The species named for experiment [7] is Homo sapiens. In words: Displacement of colchicine from tubulin (unknown origin) at 0.1 to 10 uM after 1 hr by fluorescence assay.

Calls of active or inactive are those of the source. No cut-off for these calls is given here. Where only a bound is given, the exact number is not on record here.

Consider `COc1ccc(NC(=O)c2cc(-c3ccc(C)cc3)nc3ccccc23)c(C)c1`, for which the IC50 in experiment [1] was 17.4 µM; in experiment [2], 9.5 µM; in experiment [3], 4.2 µM; in experiment [4], 1.7 µM; in experiment [5], 11.6 µM; in experiment [6], 48.1 µM.

Take `COC(=O)c1sccc1NC(=O)c1cc(-c2ccccc2)nc2ccccc12`: the IC50 in experiment [1] is 36.8 µM; in experiment [2], 34.5 µM; in experiment [3] it was 20.3 µM; in experiment [4], 22.6 µM; in experiment [5] it was 48.7 µM; in experiment [6], 46.3 µM.

Turning to `COC(=O)C1=C(NC(=O)c2cc(-c3ccccc3)nc3ccccc23)NC=CN1`, the IC50 in experiment [1] is more than 50 µM; in experiment [2], 36.8 µM; in experiment [3], 38.9 µM; in experiment [4] it was 29.5 µM; in experiment [5], more than 50 µM; in experiment [6] it was more than 50 µM.

For the molecule `C=CCNC(=S)NC(=O)c1cc(-c2ccccc2)nc2ccccc12`, the IC50 in experiment [1], in experiment [2], in experiment [3], in experiment [4], in experiment [5] and in experiment [6] was more than 50 µM each time.

For `COc1cc(OC)c(NC(=O)c2cc(-c3ccccc3)nc3ccccc23)cc1Cl`, the IC50 is 42.8 µM in experiment [1]; 42.6 µM in experiment [2]; 36.3 µM in experiment [3]; more than 50 µM in experiment [4]; more than 50 µM in experiment [5]; more than 50 µM in experiment [6].

As for `COc1ccc(NC(=O)c2c3c(nc4ccc(Cl)cc24)-c2ccccc2CC3)cc1`, the 50% inhibitory concentration (IC50) in experiment [1] was more than 50 µM; in experiment [2], more than 50 µM; in experiment [3] it was 37.6 µM; in experiment [4], 39.5 µM; in experiment [5] it was more than 50 µM; in experiment [6], more than 50 µM.

As for `COc1cc(NC(=O)c2cc(-c3cccc(C)c3)nc3ccccc23)cc(OC)c1OC`, the IC50 in experiment [1] stood at 32.7 µM; in experiment [2] it was 5.3 µM; in experiment [3] it was 10.6 µM; in experiment [4] it was 11.6 µM; in experiment [5] it was 17.8 µM; in experiment [6] it was 42.3 µM.

For the molecule `COc1ccc(NC(=O)c2cc(-c3ccccc3)nc3ccccc23)c(C)c1`, the IC50 is 20.1 µM in experiment [1]; 16.4 µM in experiment [2]; 8.4 µM in experiment [3]; 7.8 µM in experiment [4]; 23.7 µM in experiment [5]; more than 50 µM in experiment [6].

For `COc1cc2c(c(OC)c1OC)-c1ccc(OC)c(=O)cc1[C@@H](NC(C)=O)CC2` [COLCHICINE], the IC50 stood at 0.06 µM in experiment [1]; 0.5 µM in experiment [2]; 0.05 µM in experiment [3]; 0.01 µM in experiment [4]; 0.02 µM in experiment [5]; 0.09 µM in experiment [6].

Regarding `CC[C@]1(O)C[C@@H]2CN(CCc3c([nH]c4ccccc34)[C@@](C(=O)OC)(c3cc4c(cc3OC)N(C)[C@H]3[C@@](O)(C(=O)OC)[C@H](OC(C)=O)[C@]5(CC)C=CCN6CC[C@]43[C@@H]65)C2)C1`, in experiment [7], the inhibition result was “inactive”.

With `COc1ccc(NC(=O)c2cc(-c3ccccc3)nc3ccc(Cl)cc23)c(C)c1`, the IC50 is more than 50 µM in experiment [1]; more than 50 µM in experiment [2]; 34.2 µM in experiment [3]; 27.4 µM in experiment [4]; more than 50 µM in experiment [5]; more than 50 µM in experiment [6].

For the molecule `COc1ccc(NC(=O)c2cc(-c3ccc4c(c3)OCO4)nc3ccccc23)cc1`, the IC50 is more than 50 µM in experiment [1]; more than 50 µM in experiment [2]; 43.4 µM in experiment [3]; more than 50 µM in experiment [4]; 46.3 µM in experiment [5]; more than 50 µM in experiment [6].

With `Cc1cc(NC(=O)c2cc(-c3ccccc3)nc3ccccc23)no1`, the IC50 in experiment [1] is 46.2 µM; in experiment [2], more than 50 µM; in experiment [3], 36.6 µM; in experiment [4], 25.8 µM; in experiment [5], 37.9 µM; in experiment [6], more than 50 µM.

As to `CCOc1ccc(NC(=O)c2cc(-c3ccccc3)nc3ccccc23)cc1`, the IC50 in experiment [1] is more than 50 µM; in experiment [2], more than 50 µM; in experiment [3], 45.8 µM; in experiment [4] it was 49.1 µM; in experiment [5] it was more than 50 µM; in experiment [6], more than 50 µM.

In the case of `COc1ccc(NC(=O)c2cc(-c3ccccc3C)nc3ccccc23)cc1`, the IC50 in experiment [1] was more than 50 µM; in experiment [2], 42.8 µM; in experiment [3], 36.7 µM; in experiment [4] it was 31.4 µM; in experiment [5], more than 50 µM; in experiment [6], more than 50 µM.

With `COc1ccc(NC(=O)c2cc(-c3ccccc3)nc3ccccc23)cc1`, the IC50 in experiment [1] is 34.7 µM; in experiment [2], 32.5 µM; in experiment [3], 12.8 µM; in experiment [4] it was 4.9 µM; in experiment [5], 20.5 µM; in experiment [6] it was 40.5 µM.

For the molecule `COc1cc(NC(=O)c2cc(-c3ccccc3)nc3ccccc23)cc(OC)c1OC`, the IC50 was 18.9 µM in experiment [1]; 12.7 µM in experiment [2]; 5.4 µM in experiment [3]; 2.7 µM in experiment [4]; 17.9 µM in experiment [5]; 38.8 µM in experiment [6].

In the case of `COc1ccc(NC(=O)c2cc(-c3ccccc3)nc3ccc(Cl)cc23)cc1`, the IC50 in experiment [1] is more than 50 µM; in experiment [2], 40.2 µM; in experiment [3] it was 20.3 µM; in experiment [4], 24.8 µM; in experiment [5] it was more than 50 µM; in experiment [6] it was more than 50 µM.

With `COc1ccc(NC(=O)c2c3c(nc4ccc(Cl)cc24)-c2ccccc2CC3)c(C)c1`, the IC50 is more than 50 µM in experiment [1]; more than 50 µM in experiment [2]; 32.5 µM in experiment [3]; more than 50 µM in experiment [4]; more than 50 µM in experiment [5]; more than 50 µM in experiment [6].

In the case of `O=C(NC(Cc1ccccc1)C(=O)OCc1ccccc1)c1cc(-c2ccccc2)nc2ccccc12` (configuration not stated), the IC50 was more than 50 µM in experiment [1]; more than 50 µM in experiment [2]; more than 50 µM in experiment [3]; 36.1 µM in experiment [4]; more than 50 µM in experiment [5]; more than 50 µM in experiment [6].

Consider `COc1ccc(NC(=O)c2cc(-c3ccc(C)cc3)nc3ccc(C)cc23)c(C)c1`, for which the IC50 in experiment [1] was 46.1 µM; in experiment [2] it was 20.4 µM; in experiment [3], 12.3 µM; in experiment [4], 11.9 µM; in experiment [5], 30.1 µM; in experiment [6] it was more than 50 µM.

Turning to `COc1cccc(NC(=O)c2cc(-c3ccccc3)nc3ccccc23)c1`, the IC50 in experiment [1] was 34.7 µM; in experiment [2], 40.5 µM; in experiment [3] it was 17.4 µM; in experiment [4], 12.9 µM; in experiment [5], 32.5 µM; in experiment [6], 43.8 µM.

Regarding `COc1ccc(NC(=O)c2cc(-c3ccc(C)cc3)nc3ccc(C)cc23)cc1`, the IC50 was 32.4 µM in experiment [1]; 16.4 µM in experiment [2]; 8.3 µM in experiment [3]; 10.4 µM in experiment [4]; 29.7 µM in experiment [5]; more than 50 µM in experiment [6].

As for `COc1ccc(NC(=O)c2cc(-c3cccc(C)c3)nc3ccccc23)c(C)c1`, the IC50 in experiment [1] was 32.1 µM; in experiment [2] it was 10.4 µM; in experiment [3] it was 15.3 µM; in experiment [4] it was 14.6 µM; in experiment [5], 23.6 µM; in experiment [6], more than 50 µM.

For `CSc1cccc(NC(=O)c2cc(-c3ccccc3)nc3ccccc23)c1`, the IC50 in experiment [1] is 42.8 µM; in experiment [2] it was 45.8 µM; in experiment [3], 36.8 µM; in experiment [4] it was 48.3 µM; in experiment [5], more than 50 µM; in experiment [6], more than 50 µM.

In the case of `COc1ccc(NC(=O)c2cc(-c3ccccc3)nc3ccc(F)cc23)cc1`, the IC50 in experiment [1] was more than 50 µM; in experiment [2], more than 50 µM; in experiment [3], 29.7 µM; in experiment [4], 34.2 µM; in experiment [5] it was more than 50 µM; in experiment [6] it was more than 50 µM.

As for `COc1ccc(NC(=O)c2cc(-c3ccccc3C)nc3ccccc23)c(C)c1`, the IC50 is 41.6 µM in experiment [1]; more than 50 µM in experiment [2]; 42.2 µM in experiment [3]; 43.6 µM in experiment [4]; 45.7 µM in experiment [5]; more than 50 µM in experiment [6].

On to `COc1ccc(NC(=O)c2cc(-c3cccc(C)c3)nc3ccccc23)cc1`, for which the IC50 is more than 50 µM in experiment [1]; 30.2 µM in experiment [2]; 12.4 µM in experiment [3]; 9.4 µM in experiment [4]; 30.5 µM in experiment [5]; more than 50 µM in experiment [6].

Turning to `COc1cc(NC(=O)c2cc(-c3ccccc3)nc3ccc(Cl)cc23)cc(OC)c1OC`, the IC50 in experiment [1] was more than 50 µM; in experiment [2], more than 50 µM; in experiment [3], 24.1 µM; in experiment [4], 36.4 µM; in experiment [5], more than 50 µM; in experiment [6], more than 50 µM.

As to `COc1ccc(NC(=O)c2cc(-c3ccc(C)cc3)nc3ccccc23)cc1`, the IC50 in experiment [1] was found to be 35.2 µM; in experiment [2], 25.2 µM; in experiment [3], 6.3 µM; in experiment [4], 3.7 µM; in experiment [5], 18.5 µM; in experiment [6], 47.8 µM.

As for `COc1ccc(NC(=O)c2cc(-c3ccc(C(F)(F)F)cc3)nc3ccccc23)c(C)c1`, the IC50 is more than 50 µM in experiment [1]; more than 50 µM in experiment [2]; more than 50 µM in experiment [3]; 47.3 µM in experiment [4]; more than 50 µM in experiment [5]; more than 50 µM in experiment [6].

As for `COc1cc(NC(=O)c2cc(-c3ccc(C)cc3)nc3ccc(C)cc23)cc(OC)c1OC`, the IC50 in experiment [1] is 37.1 µM; in experiment [2], 13.5 µM; in experiment [3] it was 6.2 µM; in experiment [4] it was 5.2 µM; in experiment [5], 20.3 µM; in experiment [6] it was 42.7 µM.

The values above are taken from ChEMBL document CHEMBL4043270, “Design, synthesis and biological evaluation of 2-phenylquinoline-4-carboxamide derivatives as a new class of tubulin polymerization inhibitors” (Bioorg Med Chem, 2017).
